# Data taken from US20040087030A1, “Method for the regeneration of cotton” (priority 1998, published 2004).
# What was measured:
# Assay type in all cases: cell-based, cotton (Coker 312)
# [1] = system: transgenic cotton calli (Coker 312); assay: Induction of embryogenesis in transgenic cotton callus on induction media with antioxidant (ascorbic acid)
# Method: […] This culture was maintained at 28° C. under conditions of dark or limited lighting. The dark or limited lighting conditions were accomplished using a black bag, a covering of aluminum foil, or by incubating in a dark growth chamber. Alternatively, the transgenic calli may be incubated under green light. The incubation is continued for about eight to ten weeks.
# embryogenic cotton calli = assay: Embryogenic callus formation on induction media with ethylene inhibitors; settings: 40 calli tested
# Method: The transgenic calli were removed from the hypocotyls and transferred to a culture containing hormone-free media comprising the following components per liter: 4.4 g MS salts with B5 vitamins; 30 g glucose, pH 5.8; an antioxidant, such as ascorbic acid (10-100 mg); an ethylene inhibitor, such as aminoethoxyvinylglycine at approximately 5 μM; GELRITE or PHYTAGEL (2-3 g); and selective agents as described above. This culture was maintained at 28° C. under conditions of dark or limited lighting. The dark or limited lighting conditions were accomplished using a black bag, a covering of aluminum foil, or by incubating in a dark growth chamber. Alternatively, the transgenic calli may be incubated under green light. The incubation is continued for about eight to ten weeks.
# In two separate experiments, the ethylene inhibitors AVG (aminoethoxy-vinylglycine), DNP (2,4-dinitrophenol), and salicylic acid were tested to determine their influence on the induction of embryogenic cotton calli.
# cotton embryos = assay: Embryo germination on germination media with varying carbohydrate concentration
# Method: The preparation of Agrobacterium, seed sterilization, seed germination, inoculation, co-culture, and selection were performed as described in Example 1. Embryos were induced as outlined in Examples 2, 3, and 4. After eight weeks, the embryogenic tissue that formed was transferred to an embryo maturation media as described in Examples 5 and 6. Cultures were monitored for the presence of actively growing embryos.
# About every four weeks, actively growing tissue and small embryos were removed and placed on fresh maturation media. The embryos were spaced on the culture plates with adequate room for growth. The tissue was returned to the warm room and incubated under the same growth conditions.
# Embryos larger than about 5 mm were transferred to a germination media (Stewart and Hsu, Planta 137:113-117, […]) with various carbohydrate concentrations and 0.25 g/L GELRITE. The embryos are incubated at 28° C. in a lighted incubator with a 16/8 day/night cycle.
# Various concentrations of glucose and sucrose in the germination media were tested. The germination media comprised sucrose or glucose at concentrations ranging from about 0%-2% (w/v).
# [2] = pMON20956 vector, ascorbic acid 100 mg/L
# [3] = 0.1% carbohydrate in germination media
# [4] = 0.5% carbohydrate in germination media
# [5] = 1% carbohydrate in germination media
# [6] = 2% carbohydrate in germination media
smiles,measurement,setting,value
"O=C1O[C@H]([C@@H](O)CO)C(O)=C1O [Ascorbic Acid, ascorbic acid]",effect on frequency of embryogenesis,"[1]; Coker 312, two independent experiments",increase the frequency of embryogenesis
same,% Embryogenic Calli Transfer 1,[1]; [2],3%
same,% Embryogenic Calli Transfer 2,[1]; [2],31%
same,Total Frequency of Embryogenesis,[1]; [2],34%
"O=[N+]([O-])c1ccc(O)c([N+](=O)[O-])c1 [DNP, 2,4-dinitrophenol]",Embryogenic Calli Formed,"embryogenic cotton calli; Expt 1 pMON10517, 1 μM",17
same,Frequency of Formation,"embryogenic cotton calli; Expt 1 pMON10517, 1 μM",43%
same,Embryogenic Calli Formed,"embryogenic cotton calli; Expt 2 pMON10079, 1 μM",16
same,Frequency of Formation,"embryogenic cotton calli; Expt 2 pMON10079, 1 μM",40%
O=C(O)c1ccccc1O [salicylic acid],Embryogenic Calli Formed,"embryogenic cotton calli; Expt 1 pMON10517, 50 μM",12
same,Frequency of Formation,"embryogenic cotton calli; Expt 1 pMON10517, 50 μM",30%
same,Embryogenic Calli Formed,"embryogenic cotton calli; Expt 2 pMON10079, 50 μM",17
same,Frequency of Formation,"embryogenic cotton calli; Expt 2 pMON10079, 50 μM",43%
OC[C@H]1O[C@@](CO)(O[C@H]2O[C@H](CO)[C@@H](O)[C@H](O)[C@H]2O)[C@@H](O)[C@@H]1O [sucrose],# Plantlets with Expanded Leaves,cotton embryos; [3],7
same,Transformation Frequency,cotton embryos; [3],47%
same,# Plantlets with Expanded Leaves,cotton embryos; [4],10
same,Transformation Frequency,cotton embryos; [4],43%
same,# Plantlets with Expanded Leaves,cotton embryos; [5],6
same,Transformation Frequency,cotton embryos; [5],27%
same,# Plantlets with Expanded Leaves,cotton embryos; [6],5
same,Transformation Frequency,cotton embryos; [6],28%
same,effect on frequency of embryo germination and plantlet formation,cotton embryos; concentrations ranging from about 0% to 0.5% (w/v) in germination media,significantly increased the frequency of embryo germination and plantlet formation
